# Key:
# [1] = tested on: myristoylated alanine-rich C kinase substrate (MARCKS) in human platelets; test: MARCKS phosphorylation (PKC activation), western blotting; type: cell-based; conditions: CSL 10 or 20 μM; ADP 10 μM or U46619 6 μM
# Description: Figure 6 Effects of CSL on activation of protein kinase CPKC activation and mobilization of intracellular calcium. (A) Rinsed platelets were incubated with DMSO or CSL (10 or 20 μM) for 10 min at 37 °C, and stimulation of ADP (10 μM, left) or U46619 (6 μM, right) was given for 1 min. The phosphorylation level of MARCKS in the platelets was determined with western blotting. Representative images from each group are shown (n = 3). Densitometric intensities of each signaling pathway component normalized to β-actin or total protein. (B,C) Human platelets preloaded with Fura-2 were incubated with DMSO (D) or CSL with extracellular Ca^2+ (1 mM) for 10 min at 37 °C, and ADP ((B) 10 μM) or U46619 ((C) 6 μM) stimulation was given to induce an increase in [Ca^2+]i. Data are shown as mean values ± SD of five independent experiments. * p < 0.05 vs. ADP (A,B) or U46619 (A,C) alone. D = 0.2% DMSO, used as the vehicle control.
# SDS-PAGE was used to isolate identical amounts of protein from the […] extracts, and the protein was then electrotransferred onto an immobilon membrane (Millipore, Billerica, MA, USA). The membranes underwent blocking, anti-phospho-MARCKS (Santa Cruz, CA, USA) incubation for 1.5 h at room temperature, HRP-conjugated secondary antibody incubation, and ECL detection. […]
# [2] = tested on: platelet-poor plasma (PPP); test: Ex vivo aPTT clotting time after intravenous injection; type: in vivo, mouse; conditions: mice
# Description: First, the potential cytotoxicity of […] on HUVECs was assessed using the 3-(4,5-dimethylthiazol-2-yl)-2,5-diphenyltetrazolium bromide (MTT) assay. […] The activated partial thromboplastin time (aPTT) and prothrombin time (PT), two coagulation parameters altered by CSL in vitro, were assessed first. We used the direct FXa inhibitor rivaroxaban as a positive control for our experiments. […] In the aPTT experiments, rivaroxaban at 8.38 μM and CSL at 7.23 μM, respectively, doubled the clotting time. Each mouse group (n = 5) received intravenous injections of CSL for 4 consecutive days to validate the in vitro results in an ex vivo experiment. […] In the ex vivo aPTT assays, treatment with CSL at 0.25 mg/kg and rivaroxaban at 0.29 mg/kg, respectively, doubled the clotting time. The average blood volume was determined to be 2 mL based on an estimated circulating blood volume for mice of 72 mL/kg and an average weight of 27 g for each animal used in this investigation. As a result, the estimated concentration of CSL in the peripheral blood after each injection ([…]) was 2.5, 5, 10, or 20 μM, respectively.
# Figure 2 Effects of CSL on clotting time. (A) Platelet-poor plasma (PPP) was incubated with the indicated concentrations of CSL or rivaroxaban (Riva) for 15 min. (B) One hour after administering DMSO, CSL, or Riva, blood was collected from the mice, and PPP was obtained. Then, in vitro aPTT (A) or ex vivo aPTT was measured, as described in the Methods sections. Data are shown as mean values ± SD of five independent experiments. * p < 0.05 vs. D. D = 0.2% DMSO, used as the vehicle control.
# Male C57BL/6 mice aged 7 weeks (mean weight: 27 g) were purchased from Orient Bio Co., in Sungnam, Republic of Korea, and were subjected to a 12-day acclimatization phase. […]
# Plasma was taken by centrifuging blood (2000× g for 10 min) at room temperature following dimethyl sulfoxide (DMSO) or CSL administration for 1 h to assess PT and aPTT using a thrombotimer (Behnk Elektronik, Norderstedt, Germany). […] Next, the clotting time was measured.
# [3] = tested on: FX activation by FVIIa on HUVECs; test: Production of FXa on the surface of TNF-α-stimulated HUVECs; type: cell-based, human; conditions: pre-incubation 10 min
# Description: Figure 5 Effects of CSL on the catalytic activity and production of FXa. […] Plots show the average values of five independent measurements. (B) HUVECs pre-incubated with the indicated concentrations of CSL for 10 min were stimulated with TNF-α (10 ng/mL) for 6 h and incubated with FX (175 nM) and FVIIa (10 nM) with/without anti-tissue factor antibody (25 µg/mL). The production of FXa was characterized as described in the Methods section. (C) PRP was preincubated for 5 min with different concentrations of CSL, Riva, or the vehicle. Platelet aggregation was initiated with FXa (52 µg/mL), and the platelet aggregation was recorded using an aggregometer. Data are shown as mean values ± SD of five independent experiments. * p < 0.05 vs. TNF-α alone (B) or FXa (C). D = 0.2% DMSO, used as the vehicle control.
# Confluent HUVEC monolayers developed on 96-well culture plates that were stimulated with TNF-α (10 ng/mL) for 6 h after exposure to the relevant CSL concentration for 10 min. […] The reaction was stopped by adding buffer A supplemented with 10 mM EDTA, and the amount of FXa produced was determined by adding S-2765. Spectrophotometric monitoring of the absorbance over a 2 min period was performed at 405 nm. […]
compound,measurement,setting,value
"COc1cc(-c2cc(=O)c3c(O)c(OC)c(OC)cc3o2)ccc1O [CSL, 4,5-dihydroxy-3,6,7-trimethoxyflavone]",MARCKS phosphorylation in response to ADP and U46619,[1],prevented MARCKS from becoming phosphorylated
same,dose that doubled the clotting time (ex vivo aPTT),[2]; intravenous,0.25 mg/kg
same,blood clotting time ex vivo (aPTT),[2]; intravenous injections for 4 consecutive days,dramatically increased blood clotting time
same,FX activation by FVIIa,[3],inhibited FX activation in a concentration-dependent manner
